Active and inactive are the calls of the source.
Key:
Beta-galactosidase = Beta-galactosidase (Escherichia coli, UniProt Q8VNN2); test: PubChem AID 485352; type: functional
[1] = target: T1, Type-1 angiotensin II receptor (Homo sapiens, UniProt P30556); test: AT1 receptor antagonists, dose response, selectivity assay for APJ receptor antagonist project, cell-based, uHTS hits (AID 463214); type: functional;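 also: antagonist potency against angiotensin II stimulated AT1 response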
T1 sequence (P30556 whole entry): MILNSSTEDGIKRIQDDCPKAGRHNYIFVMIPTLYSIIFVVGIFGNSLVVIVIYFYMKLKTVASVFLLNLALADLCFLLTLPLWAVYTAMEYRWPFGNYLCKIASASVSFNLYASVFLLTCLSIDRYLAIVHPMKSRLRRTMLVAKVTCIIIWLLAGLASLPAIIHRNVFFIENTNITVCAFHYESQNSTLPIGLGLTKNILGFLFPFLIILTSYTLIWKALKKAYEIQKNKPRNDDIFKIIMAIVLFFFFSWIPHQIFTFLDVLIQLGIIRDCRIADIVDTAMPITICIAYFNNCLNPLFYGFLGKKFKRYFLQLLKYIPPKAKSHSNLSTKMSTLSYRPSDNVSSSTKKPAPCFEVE

Protein skinhead-1 = target: T2, Protein skinhead-1 (Caenorhabditis elegans, UniProt P34707); type: functional
T2 sequence (P34707 whole entry): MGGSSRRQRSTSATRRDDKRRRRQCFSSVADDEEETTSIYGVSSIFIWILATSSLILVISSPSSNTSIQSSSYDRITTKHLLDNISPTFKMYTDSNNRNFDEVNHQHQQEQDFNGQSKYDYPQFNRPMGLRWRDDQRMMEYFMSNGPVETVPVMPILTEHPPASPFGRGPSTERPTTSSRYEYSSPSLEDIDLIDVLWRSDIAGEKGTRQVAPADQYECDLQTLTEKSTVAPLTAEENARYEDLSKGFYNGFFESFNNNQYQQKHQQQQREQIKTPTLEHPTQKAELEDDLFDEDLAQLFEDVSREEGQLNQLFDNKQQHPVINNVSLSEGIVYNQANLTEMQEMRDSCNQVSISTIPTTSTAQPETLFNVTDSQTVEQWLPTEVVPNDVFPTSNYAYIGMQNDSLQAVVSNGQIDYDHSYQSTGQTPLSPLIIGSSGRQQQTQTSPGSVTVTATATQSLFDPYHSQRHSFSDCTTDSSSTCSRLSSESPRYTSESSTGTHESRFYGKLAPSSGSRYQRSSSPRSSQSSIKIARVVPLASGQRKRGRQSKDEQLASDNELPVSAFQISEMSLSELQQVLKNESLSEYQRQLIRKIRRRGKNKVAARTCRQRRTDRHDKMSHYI

[2] = target: Beta-2 adrenergic receptor (Homo sapiens, UniProt P07550); test: beta2AR agonists driving receptor internalization, dose response, cell-based, FAP fluorogen, flow cytometry, cherry pick 1 (AID 588763); type: functional
Hexokinase HKDC1 = target: T3, Hexokinase HKDC1 (Homo sapiens, UniProt Q2TB90); test: SAR analysis of small molecule inhibitors of hexokinase domain containing I (HKDC1). [Related pubchem assays (depositor defined):AID493160, AID493190]; type: functional
T3 sequence (Q2TB90 whole entry): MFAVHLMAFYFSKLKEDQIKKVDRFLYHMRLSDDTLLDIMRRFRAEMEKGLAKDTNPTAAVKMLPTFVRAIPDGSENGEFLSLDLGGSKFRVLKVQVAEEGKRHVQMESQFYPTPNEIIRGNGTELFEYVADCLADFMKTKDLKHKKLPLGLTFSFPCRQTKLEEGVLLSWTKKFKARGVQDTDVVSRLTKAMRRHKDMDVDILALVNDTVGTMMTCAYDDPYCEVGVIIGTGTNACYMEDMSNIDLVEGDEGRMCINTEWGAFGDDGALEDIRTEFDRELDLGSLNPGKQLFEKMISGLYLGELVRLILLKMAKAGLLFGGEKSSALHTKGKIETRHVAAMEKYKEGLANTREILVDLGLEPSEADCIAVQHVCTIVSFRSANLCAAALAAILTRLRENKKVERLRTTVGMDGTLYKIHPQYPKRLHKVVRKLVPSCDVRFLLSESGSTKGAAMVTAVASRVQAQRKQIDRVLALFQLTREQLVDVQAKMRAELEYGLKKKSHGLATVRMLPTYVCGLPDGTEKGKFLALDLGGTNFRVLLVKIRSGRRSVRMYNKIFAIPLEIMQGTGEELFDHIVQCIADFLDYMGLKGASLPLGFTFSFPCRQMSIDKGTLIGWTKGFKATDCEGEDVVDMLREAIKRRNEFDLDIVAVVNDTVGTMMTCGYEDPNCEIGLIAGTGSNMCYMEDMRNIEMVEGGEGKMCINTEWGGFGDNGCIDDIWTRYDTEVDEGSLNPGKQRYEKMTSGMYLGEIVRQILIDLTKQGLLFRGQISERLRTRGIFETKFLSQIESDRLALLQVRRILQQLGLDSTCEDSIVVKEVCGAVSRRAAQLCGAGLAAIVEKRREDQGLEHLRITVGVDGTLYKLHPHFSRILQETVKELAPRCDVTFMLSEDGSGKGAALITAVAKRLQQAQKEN

Hexokinase-1 = target: T4, Hexokinase-1 (Homo sapiens, UniProt P19367); test: SAR analysis of small molecule inhibitors of hexokinase domain containing I (HKDC1) in the hexokinase 1 selectivity assay. [Related pubchem assays (depositor defined):AID493160, AID493190]; type: functional
T4 sequence (P19367 whole entry): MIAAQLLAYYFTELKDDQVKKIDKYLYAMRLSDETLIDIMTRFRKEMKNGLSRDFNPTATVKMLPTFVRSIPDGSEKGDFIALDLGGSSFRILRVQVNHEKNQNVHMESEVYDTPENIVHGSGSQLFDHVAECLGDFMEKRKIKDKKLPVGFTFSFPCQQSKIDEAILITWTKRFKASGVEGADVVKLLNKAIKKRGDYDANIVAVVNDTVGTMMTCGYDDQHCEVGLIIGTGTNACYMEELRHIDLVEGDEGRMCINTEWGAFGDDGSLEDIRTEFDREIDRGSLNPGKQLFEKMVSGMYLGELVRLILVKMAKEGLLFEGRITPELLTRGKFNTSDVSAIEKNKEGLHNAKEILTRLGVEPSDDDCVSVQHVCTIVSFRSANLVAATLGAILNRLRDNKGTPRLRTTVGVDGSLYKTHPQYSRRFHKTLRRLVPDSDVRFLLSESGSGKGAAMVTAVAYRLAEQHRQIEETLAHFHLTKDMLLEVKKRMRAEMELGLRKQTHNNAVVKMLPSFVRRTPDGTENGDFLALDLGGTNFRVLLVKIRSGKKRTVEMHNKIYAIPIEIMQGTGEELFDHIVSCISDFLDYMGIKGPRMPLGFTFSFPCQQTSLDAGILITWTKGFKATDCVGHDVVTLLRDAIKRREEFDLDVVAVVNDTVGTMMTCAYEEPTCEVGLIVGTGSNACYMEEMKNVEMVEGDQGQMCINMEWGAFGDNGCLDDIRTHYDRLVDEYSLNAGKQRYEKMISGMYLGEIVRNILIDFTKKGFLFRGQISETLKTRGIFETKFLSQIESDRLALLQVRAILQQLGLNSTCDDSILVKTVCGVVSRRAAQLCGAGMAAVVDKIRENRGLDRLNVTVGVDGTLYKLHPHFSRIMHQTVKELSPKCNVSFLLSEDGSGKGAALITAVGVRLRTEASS

Cytochrome P450 2C19 = Cytochrome P450 2C19 (Homo sapiens, UniProt P33261); test: Cytochrome panel assay with activity outcomes. Panel member name: p450-cyp2c19 Compounds with AC50 equal or less than 10 uM are considered active; type: functional; settings: read-out: AC50
cells [3] = type: functional, cell-based
cells [4] = type: functional, cell-based; remark: listed apart in the source
Cytochrome P450 2D6 = Cytochrome P450 2D6 (Homo sapiens, UniProt P10635);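 also: CYP2D6 member of a cytochrome P450 panel assay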
[5] = target: T5, Corticotropin-releasing factor receptor 2/Corticotropin-releasing factor-binding protein (Homo sapiens, UniProt P24387+Q13324); test: activators of CRF receptor 2 with binding protein – uHTS hits, confirmation (AID 602473); type: functional; settings: read-out: EC50_Mean
T5 sequence (Q13324 whole entry): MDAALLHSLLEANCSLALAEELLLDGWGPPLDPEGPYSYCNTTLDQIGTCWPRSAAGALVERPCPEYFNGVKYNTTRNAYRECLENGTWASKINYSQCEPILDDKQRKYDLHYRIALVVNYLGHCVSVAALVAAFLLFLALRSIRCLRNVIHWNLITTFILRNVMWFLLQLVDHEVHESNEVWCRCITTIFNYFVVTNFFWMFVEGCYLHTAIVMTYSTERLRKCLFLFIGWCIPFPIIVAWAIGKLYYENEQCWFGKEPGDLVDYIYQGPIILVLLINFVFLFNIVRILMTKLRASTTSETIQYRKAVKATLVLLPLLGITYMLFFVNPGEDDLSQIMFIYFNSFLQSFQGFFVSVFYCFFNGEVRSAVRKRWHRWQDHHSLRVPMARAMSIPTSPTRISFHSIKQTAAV
T5 sequence (P24387 whole entry): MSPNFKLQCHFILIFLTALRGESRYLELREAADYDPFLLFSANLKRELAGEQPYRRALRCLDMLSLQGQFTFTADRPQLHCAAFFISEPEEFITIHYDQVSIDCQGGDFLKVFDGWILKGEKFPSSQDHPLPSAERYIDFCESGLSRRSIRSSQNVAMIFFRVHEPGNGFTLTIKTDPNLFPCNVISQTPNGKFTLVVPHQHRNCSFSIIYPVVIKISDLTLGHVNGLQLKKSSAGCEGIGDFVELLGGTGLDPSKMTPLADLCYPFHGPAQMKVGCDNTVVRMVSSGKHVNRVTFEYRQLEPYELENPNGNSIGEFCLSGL

[6] = target: Latent membrane protein 1 (Human herpesvirus 4 (strain B95-8), UniProt P03230); test: TES1-eGFP NF-kB reporter inhibition versus Tet-On dsRED, dose response, selectivity assay for LMP1 NF-kB inhibitor project, imaging, HEK293T, dual-color eGFP/dsRED, cherry-picks (AID 588398); type: functional, cell-based
[7] = cytotoxicity in MIN6 insulinoma cells, dose response, cytotoxicity control, cell-based, mouse insulinoma (AID 2122); type: functional;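 also: confirmatory high-throughput counterscreen run to flag cytotoxic compounds; mouse MIN-6 beta cells carrying an insulin promoter eGFP reporter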
INS1 = test: beta cell apoptosis inhibitors, cytokine rescue, dose response, luminescence, retest (AID 449756); type: functional, cell-based; settings: Rattus norvegicus;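 also: cell death triggered by IL-1 beta plus TNF-alpha plus IFN-gamma mixture; protective hits raise ATP signal compared with cytokine alone wells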
[8] = Luminescence Cell-Based Dose Response HTS to Identify Inhibitors of 5'UTR Stem-Loop Driven Prion Protein mRNA Translation in H4 Neuroglioblastoma Cells. [Related pubchem assays: 1827 (Project Summary), 1813 (Primary HTS)]; type: functional
[9] = inhibitors of SNCA 5'UTR-driven reporter translation, confirmation, H4 neuroglioma cells, luminescence (AID 1988); type: functional, cell-based
[10] = target: T6, Heat shock factor protein 1 (Mus musculus, UniProt P38532); test: inhibition of MG132-induced HSE-luciferase signal, confirmation, cell-based, NIH3T3, luminescence, dose retest (AID 2382); type: functional;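 also: NIH3T3 fibroblasts with HSF1-driven luciferase reporter stressed by proteasome inhibitor MG132; luminescence from HSF1-driven luciferase expression after 8 hours of MG132 stress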
T6 sequence (P38532 whole entry): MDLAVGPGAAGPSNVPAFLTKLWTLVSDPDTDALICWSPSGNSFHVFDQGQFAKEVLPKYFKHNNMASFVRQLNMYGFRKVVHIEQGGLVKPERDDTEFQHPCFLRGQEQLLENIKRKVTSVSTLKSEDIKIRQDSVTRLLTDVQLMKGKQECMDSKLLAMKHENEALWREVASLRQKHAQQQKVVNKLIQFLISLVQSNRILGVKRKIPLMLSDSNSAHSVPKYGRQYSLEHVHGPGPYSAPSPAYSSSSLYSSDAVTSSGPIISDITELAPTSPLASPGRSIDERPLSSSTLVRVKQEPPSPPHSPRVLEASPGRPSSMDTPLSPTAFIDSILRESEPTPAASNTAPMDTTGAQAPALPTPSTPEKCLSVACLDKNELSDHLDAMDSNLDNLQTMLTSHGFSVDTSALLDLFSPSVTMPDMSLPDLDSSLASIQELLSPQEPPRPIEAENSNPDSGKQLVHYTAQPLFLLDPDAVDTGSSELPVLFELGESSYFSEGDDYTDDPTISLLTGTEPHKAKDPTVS

[11] = inhibitors of firefly luciferase expression or activity, dose response, H4 neuroglioma cells, luminescence (AID 1990); type: functional, cell-based
HEK293 = test: inhibitors of LMP1-driven NF-kB reporter, dose response, cell-based, HEK293, luciferase, cherry-pick (AID 588343); type: functional; settings: Homo sapiens
[12] = insulin promoter down-regulators in MIN6 cells, imaging, high-content screening, mouse beta cells (AID 1628); type: functional

Sequence of Latent membrane protein 1 (P03230 whole entry): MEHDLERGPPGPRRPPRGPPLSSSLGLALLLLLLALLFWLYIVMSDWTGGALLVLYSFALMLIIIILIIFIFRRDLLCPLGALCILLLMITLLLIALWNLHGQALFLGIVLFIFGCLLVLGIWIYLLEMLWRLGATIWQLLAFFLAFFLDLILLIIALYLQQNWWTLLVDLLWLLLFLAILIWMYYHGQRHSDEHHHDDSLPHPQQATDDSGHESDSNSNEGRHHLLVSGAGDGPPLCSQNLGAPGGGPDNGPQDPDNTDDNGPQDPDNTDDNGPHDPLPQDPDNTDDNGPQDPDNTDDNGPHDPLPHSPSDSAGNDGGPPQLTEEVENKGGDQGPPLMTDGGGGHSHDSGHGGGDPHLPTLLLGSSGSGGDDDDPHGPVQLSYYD
Sequence of Beta-2 adrenergic receptor (P07550 whole entry, the tested form may be a part): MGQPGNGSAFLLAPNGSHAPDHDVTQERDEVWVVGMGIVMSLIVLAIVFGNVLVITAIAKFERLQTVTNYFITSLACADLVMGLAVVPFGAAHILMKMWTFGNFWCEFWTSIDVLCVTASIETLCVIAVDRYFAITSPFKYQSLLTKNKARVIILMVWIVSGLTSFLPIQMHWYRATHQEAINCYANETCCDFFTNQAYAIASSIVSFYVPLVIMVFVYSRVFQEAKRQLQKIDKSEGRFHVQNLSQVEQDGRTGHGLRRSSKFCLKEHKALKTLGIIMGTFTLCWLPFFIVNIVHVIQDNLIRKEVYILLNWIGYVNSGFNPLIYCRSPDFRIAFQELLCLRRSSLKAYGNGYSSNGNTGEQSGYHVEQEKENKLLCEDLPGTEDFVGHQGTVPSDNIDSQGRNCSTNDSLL
Sequence of Cytochrome P450 2C19 (P33261 whole entry): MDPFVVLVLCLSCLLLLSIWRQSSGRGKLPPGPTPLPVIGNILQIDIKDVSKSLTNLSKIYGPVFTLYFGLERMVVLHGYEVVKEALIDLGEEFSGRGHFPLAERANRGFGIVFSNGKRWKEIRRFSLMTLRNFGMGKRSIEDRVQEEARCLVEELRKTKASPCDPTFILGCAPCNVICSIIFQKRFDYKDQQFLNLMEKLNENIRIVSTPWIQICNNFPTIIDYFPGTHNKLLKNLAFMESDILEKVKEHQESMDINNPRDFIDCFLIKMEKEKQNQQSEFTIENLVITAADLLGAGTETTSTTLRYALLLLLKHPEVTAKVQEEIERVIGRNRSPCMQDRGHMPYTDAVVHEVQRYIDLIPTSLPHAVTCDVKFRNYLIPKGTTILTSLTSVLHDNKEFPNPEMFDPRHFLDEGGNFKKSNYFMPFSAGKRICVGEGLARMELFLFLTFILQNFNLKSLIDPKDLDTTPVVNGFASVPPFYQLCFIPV
Sequence of Cytochrome P450 2D6 (P10635 whole entry): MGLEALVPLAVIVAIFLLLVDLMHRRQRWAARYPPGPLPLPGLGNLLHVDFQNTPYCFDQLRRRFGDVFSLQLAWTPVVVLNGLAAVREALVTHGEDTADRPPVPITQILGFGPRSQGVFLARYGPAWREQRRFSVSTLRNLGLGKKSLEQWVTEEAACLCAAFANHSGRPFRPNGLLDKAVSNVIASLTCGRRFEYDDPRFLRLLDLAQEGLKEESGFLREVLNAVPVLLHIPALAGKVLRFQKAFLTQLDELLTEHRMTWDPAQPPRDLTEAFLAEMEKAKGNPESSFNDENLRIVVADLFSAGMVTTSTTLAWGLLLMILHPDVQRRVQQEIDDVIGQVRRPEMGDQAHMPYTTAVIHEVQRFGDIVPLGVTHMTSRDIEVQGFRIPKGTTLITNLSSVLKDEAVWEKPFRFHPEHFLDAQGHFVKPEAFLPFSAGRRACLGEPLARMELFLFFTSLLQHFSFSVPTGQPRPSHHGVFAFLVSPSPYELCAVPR
Sequence of Beta-galactosidase (Q8VNN2 whole entry): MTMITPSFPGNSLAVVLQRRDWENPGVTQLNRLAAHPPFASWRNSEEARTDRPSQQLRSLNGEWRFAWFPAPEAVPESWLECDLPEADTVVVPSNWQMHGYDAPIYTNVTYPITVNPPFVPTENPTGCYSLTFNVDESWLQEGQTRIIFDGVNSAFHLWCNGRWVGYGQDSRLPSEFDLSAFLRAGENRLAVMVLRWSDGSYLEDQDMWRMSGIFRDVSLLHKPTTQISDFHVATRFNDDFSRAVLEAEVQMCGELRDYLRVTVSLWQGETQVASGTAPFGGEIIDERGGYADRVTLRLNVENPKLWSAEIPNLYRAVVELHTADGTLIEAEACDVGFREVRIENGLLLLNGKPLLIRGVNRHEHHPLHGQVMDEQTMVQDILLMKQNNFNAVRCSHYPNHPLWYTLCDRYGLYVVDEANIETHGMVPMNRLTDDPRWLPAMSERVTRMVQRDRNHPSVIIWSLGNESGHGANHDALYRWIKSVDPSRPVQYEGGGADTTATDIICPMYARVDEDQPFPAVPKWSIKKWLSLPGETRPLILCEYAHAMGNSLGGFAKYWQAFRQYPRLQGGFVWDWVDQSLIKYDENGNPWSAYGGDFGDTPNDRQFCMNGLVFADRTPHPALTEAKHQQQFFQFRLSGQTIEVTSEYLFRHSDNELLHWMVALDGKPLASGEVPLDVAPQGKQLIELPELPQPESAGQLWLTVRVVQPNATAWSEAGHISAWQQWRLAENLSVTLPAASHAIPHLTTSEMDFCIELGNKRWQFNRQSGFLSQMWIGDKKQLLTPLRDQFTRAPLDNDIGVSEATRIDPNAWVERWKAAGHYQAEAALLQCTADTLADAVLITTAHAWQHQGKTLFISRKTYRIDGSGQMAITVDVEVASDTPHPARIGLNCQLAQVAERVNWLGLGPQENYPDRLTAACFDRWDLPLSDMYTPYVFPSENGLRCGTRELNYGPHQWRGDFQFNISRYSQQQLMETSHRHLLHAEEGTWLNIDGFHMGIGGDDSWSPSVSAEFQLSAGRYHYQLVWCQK

## Cc1ccccc1NC(=O)CCC(=O)OCC(=O)c1cccc([N+](=O)[O-])c1
Beta-galactosidase
  EC50: > 40 µM (inactive)
[1]
  IC50: 33.6 µM (not active)
Protein skinhead-1
  IC50: > 100 µM (inactive)

## C=CCn1c(CCNC(=O)c2cccs2)nnc1SCC(=O)c1cccc([N+](=O)[O-])c1
[2]
  EC50: 0.133 µM (active)

## Cc1ccc(/C=C/c2nc3ccccc3c(=O)n2CCc2ccccc2)cc1
Hexokinase HKDC1
  IC50: > 80 µM (inactive)
Hexokinase-1
  IC50: > 80 µM (inactive)

## COc1ccccc1-c1cc(C(F)(F)F)nc(S(=O)(=O)CCCC(=O)NC(C)C)n1
Cytochrome P450 2C19
  AC50: 6.31 µM (inconclusive)
Cells [3]
  EC50: > 350 µM (not active)
[2]
  EC50: 9.33 µM (active)
Cells [4]
  EC50: 51.6 µM (active)
Cytochrome P450 2D6
  AC50: inconclusive

## O=c1c([N+](=O)[O-])cn(Cc2ccccc2)c(=O)n1Cc1ccccc1
[5]
  EC50: > 53 µM (inactive)
[6]
  AC50: 108 µM (active)

## O=C(N/N=C/c1ccc[nH]1)c1ccc(COc2cccc3cccnc23)cc1
[7]
  IC50: 0.574 µM (active)
INS1
  AC50: 1.05 µM (active)
[8]
  EC50: > 120 µM (not active)
[9]
  EC50: 9.79 µM (active)
[10]
  EC50: 0.16 µM (active)
[11]
  EC50: 8.34 µM (active)
[6]
  AC50: 9.15 µM (active)
HEK293
  AC50: 6.13 µM (active)
[12]
  IC50: 0.65 µM (active)

Reference: ChEMBL document CHEMBL1201862, “PubChem BioAssay data set” (2004)
